According to patent US8716303B2, “N-(hetero)aryl-pyrrolidine derivatives of pyrazol-4-yl-pyrrolo[2,3-d]pyrimidines and pyrrol-3-yl-pyrrolo[2,3-d]pyrimidines as janus kinase inhibitors” (Incyte Corporation, priority 2009, dated 2014):
Structures can show the parent of a compound that is named as a salt.

What was measured:
Jak2 (a.a. 828-1132) = molecular target: T1, Jak2 (a.a. 828-1132) (Homo sapiens, UniProt O60674); experiment: In vitro JAK kinase assay (HTRF, phosphorylation of a biotinylated peptide), JAK2, reported as JAK2/JAK1 ratio; format: biochemical
T1 construct: Jak2 (a.a. 828-1132); His tag (N); made in house; host or cells: insect cells (baculovirus)

[1] = molecular target: T2, human JAK1 (a.a. 837-1142) (Homo sapiens, UniProt P23458); experiment: In vitro JAK kinase assay (HTRF, phosphorylation of a biotinylated peptide), JAK1; format: biochemical
T2 construct: human JAK1 (a.a. 837-1142); His tag (N); made in house; host or cells: insect cells (baculovirus)
Outline: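 His-tagged catalytic domains (JAK1 a.a. 837-1142, JAK2 a.a. 828-1132) from insect cells phosphorylate 500 nM biotinylated peptide in 50 mM Tris pH 7.8, 100 mM NaCl, 5 mM DTT; ATP at Km (90 μM JAK1, 30 μM JAK2) or 1 mM, as indicated. 1 h at RT; EDTA stop, HTRF readout; IC50s.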

T2 sequence (P23458 849-1154): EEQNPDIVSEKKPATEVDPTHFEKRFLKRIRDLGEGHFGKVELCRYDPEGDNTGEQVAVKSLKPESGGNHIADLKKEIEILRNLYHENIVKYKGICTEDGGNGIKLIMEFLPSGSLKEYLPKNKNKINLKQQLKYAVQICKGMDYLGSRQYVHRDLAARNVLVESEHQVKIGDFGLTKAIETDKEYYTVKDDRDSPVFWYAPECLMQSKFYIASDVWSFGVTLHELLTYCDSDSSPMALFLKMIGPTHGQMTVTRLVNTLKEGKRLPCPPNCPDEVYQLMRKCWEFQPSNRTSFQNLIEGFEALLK
T1 sequence (O60674 828-1132): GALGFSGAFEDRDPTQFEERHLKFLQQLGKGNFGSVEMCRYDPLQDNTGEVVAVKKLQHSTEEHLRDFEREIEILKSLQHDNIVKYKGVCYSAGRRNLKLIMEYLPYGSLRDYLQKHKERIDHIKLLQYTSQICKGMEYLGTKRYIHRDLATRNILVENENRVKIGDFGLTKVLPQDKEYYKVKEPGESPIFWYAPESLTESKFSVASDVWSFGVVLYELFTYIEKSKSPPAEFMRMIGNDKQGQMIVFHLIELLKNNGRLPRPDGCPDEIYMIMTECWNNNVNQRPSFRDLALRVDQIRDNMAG

N#CC[C@@H]([C@H]1CCN(c2ncc(Br)nc2C#N)C1)n1cc(-c2ncnc3[nH]ccc23)cn1 [Example 142, 6-bromo-3-(3S)-3-{(1S)-2-cyano-1-[4-(7H-pyrrolo[2,3-d]pyrimidin-4-yl)-1H-pyrazol-1-yl]ethyl}pyrrolidin-1-yl)pyrazine-2-carbonitrile trifluoroacetate]
JAK2/JAK1 IC50 ratio (Jak2 (a.a. 828-1132); Assay Conditions 1 mM ATP): 14.2
IC50 ([1]; Assay Conditions 1 mM ATP): < 50 nM

CSc1nccc(N2CCC(C(CC#N)n3cc(-c4ncnc5[nH]ccc45)cn3)C2)n1 (single isomer, unassigned) [Example 23, 3-{1-[2-(methylthio)pyrimidin-4-yl]pyrrolidin-3-yl}-3-[4-(7H-pyrrolo[2,3-d]pyrimidin-4-yl)-1H-pyrazol-1-yl]propanenitrile]
JAK2/JAK1 IC50 ratio (Jak2 (a.a. 828-1132); Assay Conditions 1 mM ATP): 2.3
IC50 ([1]; Assay Conditions 1 mM ATP): < 50 nM

Cc1cnc2oc(N3CCC(C(CC#N)n4cc(-c5ncnc6[nH]ccc56)cn4)C3)nc2c1 (single isomer, unassigned) [Example 14, 3-[1-(6-methyl[1,3]oxazolo[5,4-b]pyridin-2-yl)pyrrolidin-3-yl]-3-[4-(7H-pyrrolo[2,3-d]pyrimidin-4-yl)-1H-pyrazol-1-yl]propanenitrile]
JAK2/JAK1 IC50 ratio (Jak2 (a.a. 828-1132); Assay Conditions Km (ATP 90 μM for Jak1, 30 μM for Jak2)): 4
IC50 ([1]; Assay Conditions Km (ATP 90 μM for Jak1)): < 50 nM

N#CC[C@@H]([C@H]1CCN(c2scc(Br)c2C#N)C1)n1cc(-c2ncnc3[nH]ccc23)cn1 [Example 77, 4-bromo-2-((3S)-3-{(1S)-2-cyano-1-[4-(7H-pyrrolo[2,3-d]pyrimidin-4-yl)-1H-pyrazol-1-yl]ethyl}pyrrolidin-1-yl)thiophene-3-carbonitrile]
JAK2/JAK1 IC50 ratio (Jak2 (a.a. 828-1132); Assay Conditions 1 mM ATP): 39.1
IC50 ([1]; Assay Conditions 1 mM ATP): < 50 nM

N#CCC(C1CCN(c2nc3cccc(CO)c3o2)C1)n1cc(-c2ncnc3[nH]ccc23)cn1 (single isomer, unassigned) [Example 166, 3-{1-[7-(hydroxymethyl)-1,3-benzoxazol-2-yl]pyrrolidin-3-yl}-3-[4-(7H-pyrrolo[2,3-d]pyrimidin-4-yl)-1H-pyrazol-1-yl]propanenitrile]
JAK2/JAK1 IC50 ratio (Jak2 (a.a. 828-1132); Assay Conditions 1 mM ATP): >8.7
IC50 ([1]; Assay Conditions 1 mM ATP): < 50 nM

N#CCC(C1CCN(c2nc3cncnc3o2)C1)n1cc(-c2ncnc3[nH]ccc23)cn1 (single isomer, unassigned) [Example 18, 3-(1-[1,3]oxazolo[5,4-d]pyrimidin-2-ylpyrrolidin-3-yl)-3-[4-(7H-pyrrolo[2,3-d]pyrimidin-4-yl)-1H-pyrazol-1-yl]propanenitrile]
JAK2/JAK1 IC50 ratio (Jak2 (a.a. 828-1132); Assay Conditions 1 mM ATP): 10.3
IC50 ([1]; Assay Conditions 1 mM ATP): 50 to 100 nM

N#CCC(n1cc(-c2ncnc3[nH]ccc23)cn1)C1(F)CCN(c2nc3cccnc3o2)C1 (single isomer, unassigned) [31, Step 4b, enantiomer 2]
JAK2/JAK1 IC50 ratio (Jak2 (a.a. 828-1132); Assay Conditions 1 mM ATP): 0.8
IC50 ([1]; Assay Conditions 1 mM ATP): 100 to 500 nM

COc1ncc(F)c(N2CC[C@H]([C@H](CC#N)n3cc(-c4ncnc5[nH]ccc45)cn3)C2)n1 [Example 104, (S)-3-(4-(7H-pyrrolo[2,3-d]pyrimidin-4-yl)-1H-pyrazol-1-yl)-3-((S)-1-(5-fluoro-2-methoxypyrimidin-4-yl)pyrrolidin-3-yl)propanenitrile trifluoroacetate salt]
JAK2/JAK1 IC50 ratio (Jak2 (a.a. 828-1132); Assay Conditions 1 mM ATP): 5.9
IC50 ([1]; Assay Conditions 1 mM ATP): < 50 nM

CS(=O)(=O)c1cc(N2CCC(C(CC#N)n3cc(-c4ncnc5[nH]ccc45)cn3)C2)ccn1 (single isomer, unassigned) [Example 27, 3-{1-[2-(methylsulfonyl)pyridin-4-yl]pyrrolidin-3-yl}-3-[4-(7H-pyrrolo[2,3-d]pyrimidin-4-yl)-1H-pyrazol-1-yl]propanenitrile]
JAK2/JAK1 IC50 ratio (Jak2 (a.a. 828-1132); Assay Conditions 1 mM ATP): 14
IC50 ([1]; Assay Conditions 1 mM ATP): < 50 nM

N#CCC(C1CCN(c2scnc2C#N)C1)n1ccc(-c2ncnc3[nH]ccc23)c1 (racemic) [Example 149-2, 5-(3-{2-cyano-1-[3-(7H-pyrrolo[2,3-d]pyrimidin-4-yl)-1H-pyrrol-1-yl]ethyl}pyrrolidin-1-yl)-1,3-thiazole-4-carbonitrile]
JAK2/JAK1 IC50 ratio (Jak2 (a.a. 828-1132); Assay Conditions 1 mM ATP): 4.5
IC50 ([1]; Assay Conditions 1 mM ATP): < 50 nM

CN(C)C(=O)c1cc(N2CCC(C(CC#N)n3cc(-c4ncnc5[nH]ccc45)cn3)C2)ccn1 (single isomer, unassigned) [Example 153, 4-(3-{2-cyano-1-[4-(7H-pyrrolo[2,3-d]pyrimidin-4-yl)-1H-pyrazol-1-yl]ethyl}pyrrolidin-1-yl)-N,N-dimethylpyridine-2-carboxamide]
JAK2/JAK1 IC50 ratio (Jak2 (a.a. 828-1132); Assay Conditions 1 mM ATP): >11.1
IC50 ([1]; Assay Conditions 1 mM ATP): < 50 nM

N#CC[C@@H]([C@H]1CCN(c2ncc(F)cc2C#N)C1)n1cc(-c2ncnc3[nH]ccc23)cn1 [Example 108, 2-((S)-3-((S)-1-(4-(7H-pyrrolo[2,3-d]pyrimidin-4-yl)-1H-pyrazol-1-yl)-2-cyanoethyl)pyrrolidin-1-yl)-5-fluoronicotinonitrile trifluoroacetate salt]
JAK2/JAK1 IC50 ratio (Jak2 (a.a. 828-1132); Assay Conditions 1 mM ATP): 5.7
IC50 ([1]; Assay Conditions 1 mM ATP): < 50 nM

N#CC[C@@H]([C@H]1CCN(c2cccc(Br)c2C#N)C1)n1cc(-c2ncnc3[nH]ccc23)cn1 [Example 57, 2-bromo-6-((3S)-3-{(1S)-2-cyano-1-[4-(7H-pyrrolo[2,3-d]pyrimidin-4-yl)-1H-pyrazol-1-yl]ethyl}pyrrolidin-1-yl)benzonitrile trifluoroacetate salt]
JAK2/JAK1 IC50 ratio (Jak2 (a.a. 828-1132); Assay Conditions 1 mM ATP): 37
IC50 ([1]; Assay Conditions 1 mM ATP): < 50 nM

COCc1cnc(N2CC[C@H]([C@H](CC#N)n3cc(-c4ncnc5[nH]ccc45)cn3)C2)c(C#N)n1 [Example 141, 3-((3S)-3-{(1S)-2-cyano-1-[4-(7H-pyrrolo[2,3-d]pyrimidin-4-yl)-1H-pyrazol-1-yl]ethyl}pyrrolidin-1-yl)-6-(methoxymethyl)pyrazine-2-carbonitrile trifluoroacetate]
JAK2/JAK1 IC50 ratio (Jak2 (a.a. 828-1132); Assay Conditions 1 mM ATP): 16.2
IC50 ([1]; Assay Conditions 1 mM ATP): < 50 nM

N#CC[C@@H]([C@H]1CCN(c2ncc(Br)s2)C1)n1cc(-c2ncnc3[nH]ccc23)cn1 [Example 47, (3S)-3-[(3S)-1-(5-bromo-1,3-thiazol-2-yl)pyrrolidin-3-yl]-3-[4-(7H-pyrrolo[2,3-d]pyrimidin-4-yl)-1H-pyrazol-1-yl]propanenitrile trifluoroacetate]
JAK2/JAK1 IC50 ratio (Jak2 (a.a. 828-1132); Assay Conditions 1 mM ATP): 6.9
IC50 ([1]; Assay Conditions 1 mM ATP): < 50 nM

N#CC[C@@H]([C@H]1CCN(c2ncccc2C#N)C1)n1cc(-c2ncnc3[nH]ccc23)cn1 [Example 62, 2-((3S)-3-{(1S)-2-cyano-1-[4-(7H-pyrrolo[2,3-d]pyrimidin-4-yl)-1H-pyrazol-1-yl]ethyl}pyrrolidin-1-yl) nicotinonitrile trifluoroacetate salt]
JAK2/JAK1 IC50 ratio (Jak2 (a.a. 828-1132); Assay Conditions 1 mM ATP): 7.1
IC50 ([1]; Assay Conditions 1 mM ATP): < 50 nM

CS(=O)(=O)c1nc(F)c(N2CC[C@H]([C@H](CC#N)n3cc(-c4ncnc5[nH]ccc45)cn3)C2)cc1F [Example 134, (3S)-3-{(3S)-1-[2,5-difluoro-6-(methylsulfonyl)pyridin-3-yl]pyrrolidin-3-yl}-3-[4-(7H-pyrrolo[2,3-d]pyrimidin-4-yl)-1H-pyrazol-1-yl]propanenitrile trifluoroacetate]
JAK2/JAK1 IC50 ratio (Jak2 (a.a. 828-1132); Assay Conditions 1 mM ATP): 17
IC50 ([1]; Assay Conditions 1 mM ATP): < 50 nM
